Data: PubChem BioAssay (NCI)
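A five-concentration, 48-hour dose response in 96-well plates underlies each endpoint, interpolated linearly between surrounding concentrations. GI50 is the concentration that inhibits growth by half. The concentration for full growth arrest is given as TGI.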

How the values were obtained:
Assay in all cases: DTP human tumour cell line panel, 48 h
NCI-H226 lung = tested on: NCI-H226 lung
EKVX NSCLC = tested on: EKVX NSCLC
MCF7 breast = tested on: MCF7 breast
UACC-257 melanoma = tested on: UACC-257 melanoma
IGROV1 ovarian = tested on: IGROV1 ovarian
SN12C renal = tested on: SN12C renal
UACC-62 melanoma = tested on: UACC-62 melanoma
U251 CNS = tested on: U251 CNS
HOP-92 NSCLC = tested on: HOP-92 NSCLC
SR leukemia = tested on: SR leukemia
NCI-H460 lung = tested on: NCI-H460 lung
HT29 colon = tested on: HT29 colon
LOX IMVI melanoma = tested on: LOX IMVI melanoma
SF-268 CNS = tested on: SF-268 CNS
A498 renal = tested on: A498 renal
BT-549 breast = tested on: BT-549 breast
SK-MEL-2 melanoma = tested on: SK-MEL-2 melanoma
HL-60(TB) leukemia = tested on: HL-60(TB) leukemia
SNB-75 CNS = tested on: SNB-75 CNS
K-562 leukemia = tested on: K-562 leukemia
OVCAR-3 ovarian = tested on: OVCAR-3 ovarian
CCRF-CEM leukemia = tested on: CCRF-CEM leukemia
786-0 renal = tested on: 786-0 renal
SF-295 CNS = tested on: SF-295 CNS
OVCAR-4 ovarian = tested on: OVCAR-4 ovarian
MOLT-4 leukemia = tested on: MOLT-4 leukemia
HCT-116 colon = tested on: HCT-116 colon
NCI/ADR-RES ovarian = tested on: NCI/ADR-RES ovarian
HOP-62 NSCLC = tested on: HOP-62 NSCLC
NCI-H522 lung = tested on: NCI-H522 lung
HCT-15 colon = tested on: HCT-15 colon
T-47D breast = tested on: T-47D breast
RXF 393 renal = tested on: RXF 393 renal
KM12 colon = tested on: KM12 colon
SK-MEL-28 melanoma = tested on: SK-MEL-28 melanoma
CAKI-1 renal = tested on: CAKI-1 renal
HS 578T breast = tested on: HS 578T breast
TK-10 renal = tested on: TK-10 renal
SW-620 colon = tested on: SW-620 colon
HCC-2998 colon = tested on: HCC-2998 colon
SF-539 CNS = tested on: SF-539 CNS
ACHN renal = tested on: ACHN renal
UO-31 renal = tested on: UO-31 renal
DU-145 prostate = tested on: DU-145 prostate
OVCAR-5 ovarian = tested on: OVCAR-5 ovarian
MALME-3M melanoma = tested on: MALME-3M melanoma
MDA-MB-231 breast = tested on: MDA-MB-231 breast
SK-MEL-5 melanoma = tested on: SK-MEL-5 melanoma
COLO 205 colon = tested on: COLO 205 colon
PC-3 prostate = tested on: PC-3 prostate
RPMI-8226 leukemia = tested on: RPMI-8226 leukemia
OVCAR-8 ovarian = tested on: OVCAR-8 ovarian
M14 melanoma = tested on: M14 melanoma
SK-OV-3 ovarian = tested on: SK-OV-3 ovarian
A549 NSCLC = tested on: A549 NSCLC
MDA-MB-435 = tested on: MDA-MB-435
MDA-MB-468 breast = tested on: MDA-MB-468 breast
NCI-H23 lung = tested on: NCI-H23 lung
SNB-19 CNS = tested on: SNB-19 CNS

Compound: Cc1ccc(-c2cc(C(=O)N=Nc3c(O)[nH]c4ccccc34)c3ccccc3n2)cc1
- GI50 (NCI-H226 lung): 10.6 µM
- TGI (NCI-H226 lung): 28.6 µM
- GI50 (EKVX NSCLC): 6.08 µM
- TGI (EKVX NSCLC): 30.4 µM
- GI50 (MCF7 breast): 4.39 µM
- TGI (MCF7 breast): 33.4 µM
- GI50 (UACC-257 melanoma): 14.3 µM
- TGI (UACC-257 melanoma): 32.2 µM
- GI50 (IGROV1 ovarian): 5.89 µM
- TGI (IGROV1 ovarian): 23.1 µM
- GI50 (SN12C renal): 3.15 µM
- TGI (SN12C renal): 14.5 µM
- GI50 (UACC-62 melanoma): 12.7 µM
- TGI (UACC-62 melanoma): 32.1 µM
- GI50 (U251 CNS): 3.02 µM
- TGI (U251 CNS): 10.7 µM
- GI50 (HOP-92 NSCLC): 11.2 µM
- TGI (HOP-92 NSCLC): 36.4 µM
- GI50 (SR leukemia): 2.38 µM
- TGI (SR leukemia): > 100 µM
- GI50 (NCI-H460 lung): 2.87 µM
- TGI (NCI-H460 lung): 8.25 µM
- GI50 (HT29 colon): 7.14 µM
- TGI (HT29 colon): 25.8 µM
- GI50 (LOX IMVI melanoma): 3.63 µM
- TGI (LOX IMVI melanoma): 15.8 µM
- GI50 (SF-268 CNS): 12.8 µM
- TGI (SF-268 CNS): > 100 µM
- GI50 (A498 renal): 19.3 µM
- TGI (A498 renal): 39.8 µM
- GI50 (BT-549 breast): 3.09 µM
- TGI (BT-549 breast): 18 µM
- GI50 (SK-MEL-2 melanoma): 23.9 µM
- TGI (SK-MEL-2 melanoma): 60.4 µM
- GI50 (HL-60(TB) leukemia): 6.54 µM
- TGI (HL-60(TB) leukemia): 43.9 µM
- GI50 (SNB-75 CNS): 2.54 µM
- TGI (SNB-75 CNS): 17.3 µM
- GI50 (K-562 leukemia): 3.19 µM
- TGI (K-562 leukemia): > 100 µM
- GI50 (OVCAR-3 ovarian): 5.2 µM
- TGI (OVCAR-3 ovarian): 25 µM
- GI50 (CCRF-CEM leukemia): 4.73 µM
- TGI (CCRF-CEM leukemia): > 100 µM
- GI50 (786-0 renal): 2.87 µM
- TGI (786-0 renal): 9.8 µM
- GI50 (SF-295 CNS): 13.3 µM
- TGI (SF-295 CNS): 28.5 µM
- GI50 (OVCAR-4 ovarian): 3.43 µM
- TGI (OVCAR-4 ovarian): 26.6 µM
- GI50 (MOLT-4 leukemia): 4.23 µM
- TGI (MOLT-4 leukemia): 38.5 µM
- GI50 (HCT-116 colon): 1.97 µM
- TGI (HCT-116 colon): 4.46 µM
- GI50 (NCI/ADR-RES ovarian): 2.24 µM
- TGI (NCI/ADR-RES ovarian): 6.11 µM
- GI50 (HOP-62 NSCLC): 13.5 µM
- TGI (HOP-62 NSCLC): 29.1 µM
- GI50 (NCI-H522 lung): 9.85 µM
- TGI (NCI-H522 lung): 25.6 µM
- GI50 (HCT-15 colon): 3.87 µM
- TGI (HCT-15 colon): 17.9 µM
- GI50 (T-47D breast): 5.38 µM
- TGI (T-47D breast): 47.3 µM
- GI50 (RXF 393 renal): 1.88 µM
- TGI (RXF 393 renal): 6.11 µM
- GI50 (KM12 colon): 5.84 µM
- TGI (KM12 colon): 73.4 µM
- GI50 (SK-MEL-28 melanoma): 11.9 µM
- TGI (SK-MEL-28 melanoma): 26.6 µM
- GI50 (CAKI-1 renal): 4.56 µM
- TGI (CAKI-1 renal): 21.5 µM
- GI50 (HS 578T breast): 4.84 µM
- TGI (HS 578T breast): 88.9 µM
- GI50 (TK-10 renal): 20.6 µM
- TGI (TK-10 renal): 40.9 µM
- GI50 (SW-620 colon): 6.07 µM
- TGI (SW-620 colon): 34 µM
- GI50 (HCC-2998 colon): 3.84 µM
- TGI (HCC-2998 colon): 15.3 µM
- GI50 (SF-539 CNS): 3.27 µM
- TGI (SF-539 CNS): 11.3 µM
- GI50 (ACHN renal): 10.3 µM
- TGI (ACHN renal): 22.2 µM
- GI50 (UO-31 renal): 10.7 µM
- TGI (UO-31 renal): 22.6 µM
- GI50 (DU-145 prostate): 5.48 µM
- TGI (DU-145 prostate): 37.6 µM
- GI50 (OVCAR-5 ovarian): 8.67 µM
- TGI (OVCAR-5 ovarian): 26.7 µM
- GI50 (MALME-3M melanoma): 6.38 µM
- TGI (MALME-3M melanoma): 21.1 µM
- GI50 (MDA-MB-231 breast): 2.39 µM
- TGI (MDA-MB-231 breast): 6.41 µM
- GI50 (SK-MEL-5 melanoma): 5.66 µM
- TGI (SK-MEL-5 melanoma): 20 µM
- GI50 (COLO 205 colon): 15.4 µM
- TGI (COLO 205 colon): 37.9 µM
- GI50 (PC-3 prostate): 17.2 µM
- TGI (PC-3 prostate): > 100 µM
- GI50 (RPMI-8226 leukemia): 5.34 µM
- TGI (RPMI-8226 leukemia): > 100 µM
- GI50 (OVCAR-8 ovarian): 2.84 µM
- TGI (OVCAR-8 ovarian): 9.15 µM
- GI50 (M14 melanoma): 7.76 µM
- TGI (M14 melanoma): 27.8 µM
- GI50 (SK-OV-3 ovarian): 18.1 µM
- TGI (SK-OV-3 ovarian): 36.4 µM
- GI50 (A549 NSCLC): 3.99 µM
- TGI (A549 NSCLC): 22 µM
- GI50 (MDA-MB-435): 3 µM
- TGI (MDA-MB-435): 11.5 µM
- GI50 (MDA-MB-468 breast): 3.41 µM
- TGI (MDA-MB-468 breast): 15.4 µM
- GI50 (NCI-H23 lung): 4.67 µM
- TGI (NCI-H23 lung): 26.1 µM
- GI50 (SNB-19 CNS): 10.6 µM
- TGI (SNB-19 CNS): 48.5 µM
